Laboratory results: patent US5698669A, “Tri-arginine insulins” (Eli Lilly and Company, priority 1995, dated 1997)

Columns and labels:
[1] = tested on: New Zealand White rabbits; assay: Blood glucose in fasted rabbits after subcutaneous injection of 40 U/ml insulin solutions; format: in vivo, rabbit; conditions: for Percent of Original Blood Glucose: added zinc 0 mg/ml, 0.2 U/kg s.c., rabbits, n = 10; for hypoglycemic activity: statement in words, animal model
Description: Solutions were prepared containing various amounts of zinc (0-2.4 mg/ml) in the form of zinc chloride. Glacial acetic acid was used to solublize each of the solutions at a final pH range of pH 4-6.
New Zealand White rabbits, mostly female, all weighing 2.7-4 kg, 0.5-4 years of age and fasted 16 hours prior to administration of sample were used for testing.
At various times, 100 μl volumes of blood were obtained from the marginal ear veins, mixed with 900 μl volumes of anticoagulant (EDTA-sodium fluoride) and analyzed for glucose content. The glucose values were standardized to reflect percent of original blood glucose measured prior to sample injection.

human proinsulin (human) = human proinsulin (human) (UniProt P01308)
[2] = standardized value used for formulating 40 U/ml solutions; cited from earlier work
[3] = target: des(64) human proinsulin (human) (UniProt P01308)

Q: For “Des(64) HPI: split(64) proinsulin wherein Lys-64 is removed”, which “Percent of Original Blood Glucose” value ([1]; 4 hours after injection) is on record?
A: Its value is 99.6%.

Q: And the “Percent of Original Blood Glucose” value ([1]; 6 hours after injection)?
A: The value was 90.0%.

Q: What about the hypoglycemic activity [1] of the same substance?
A: Its hypoglycemic activity is “hypoglycemic activity of its own”.

Q: For “Pseudomonas aeruginosa Endopeptidase-Lys-C (Promega) (enzyme)”, which conversion of human proinsulin to split(64) proinsulin (preparative HPLC, yield of product) (human proinsulin (human)) is on record?
A: Its conversion of human proinsulin to split(64) proinsulin (preparative HPLC, yield of product) is 237 mg.

Q: Which hypoglycemic activity [1] does the source give for “Split(64) HPI: human proinsulin wherein the peptide bond between Lys-64 and Arg-65 is broken” here?
A: Its hypoglycemic activity is “hypoglycemic activity of its own”.

Q: For “human insulin: natural human insulin, reference for biopotency”, which “standardized value (potency per mass)” value [2] is on record?
A: Its value is 28.85 U/mg.

Q: For “pork trypsin (Sigma) (from UniProt P00761) (enzyme)”, which conversion of des(64) human proinsulin to tri-arg insulin (preparative HPLC, yield of product) [3] is on record?
A: Its conversion of des(64) human proinsulin to tri-arg insulin (preparative HPLC, yield of product) is 0.94 g.
